Molecules are shown by their SMILES.

We go through 26 molecules from ChEMBL document CHEMBL1129273, “Structural modifications of thalidomide produce analogs with enhanced tumor necrosis factor inhibitory activity” (J Med Chem, 1996).

Assay [1] has as its target T1, Tumor necrosis factor (Homo sapiens, UniProt P01375). In words: Inhibition of TNF-alpha production in LPS stimulated human PBMCs. The format is functional.
For assay [2], the target named is T1, Tumor necrosis factor. Briefly: Inhibitory activity of TNF-alpha was measured in the supernatant of human PBMCs stimulated with LPS. The format is functional.

T1 sequence (P01375 whole entry): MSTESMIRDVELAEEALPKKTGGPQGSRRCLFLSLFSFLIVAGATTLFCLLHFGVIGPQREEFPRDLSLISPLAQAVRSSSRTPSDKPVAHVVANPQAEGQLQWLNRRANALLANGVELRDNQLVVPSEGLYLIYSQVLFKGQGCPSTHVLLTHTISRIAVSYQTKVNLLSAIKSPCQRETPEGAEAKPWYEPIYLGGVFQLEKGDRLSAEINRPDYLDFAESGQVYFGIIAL

What is called IC50 is the concentration at which inhibition is half-maximal. Low values mean greater potency in that assay, high ones weaker potency in that assay. On to `COc1ccc(C(CC(=O)NCc2ccccc2)N2C(=O)c3ccccc3C2=O)cc1OC` (stereo unspecified), for which the 50% inhibitory concentration (IC50) at Tumor necrosis factor [1] was found to be 84 µM. For the molecule `COc1ccc(C(CC(=O)O)N2C(=O)c3ccccc3C2=O)cc1OC` (stereo unspecified), the IC50 at Tumor necrosis factor [1] turned out to be 60 µM.

`COc1ccc(C(CCO)N2C(=O)c3ccccc3C2=O)cc1OC` (stereo unspecified): at Tumor necrosis factor [1], the IC50 turned out to be 7.5 µM. As for `COC(=O)CC(c1ccc(OC)c(OC)c1)N1C(=O)c2cccc(N)c2C1=O` (stereo unspecified), the IC50 at Tumor necrosis factor [1] is 0.45 µM.

With `CCCOc1ccc(C(CC(N)=O)N2C(=O)c3ccccc3C2=O)cc1OCCC` (stereo unspecified), inhibition on Tumor necrosis factor [1] was half-maximal at 55 µM (IC50). On the same count and under the same terms, in the case of `COC(=O)CC(c1ccc(OC)c(OC)c1)N1C(=O)c2cc3ccccc3cc2C1=O` (stereo unspecified) it was 4.7 µM; in that of `N#Cc1ccc(C(CC(N)=O)N2C(=O)c3ccccc3C2=O)cc1` (stereo unspecified), 150 µM.

Regarding `COC(=O)CC(c1ccc(OC)c(OC)c1)N1C(=O)c2ccc(C(C)(C)C)cc2C1=O` (stereo unspecified), at Tumor necrosis factor [1], the half-inhibitory concentration (IC50) amounted to 4.2 µM. For `CCNC(=O)CC(c1ccc(OC)c(OC)c1)N1C(=O)c2ccccc2C1=O` (stereo unspecified), at Tumor necrosis factor [1], half-maximal inhibition (IC50) required 53 µM. With `COC(=O)CC(c1ccc(OC)c(OC)c1)N1C(=O)c2c(Cl)ccc(Cl)c2C1=O` (stereo unspecified), the IC50 against Tumor necrosis factor [2] worked out at 7.9 µM. On Tumor necrosis factor [1], `CNC(=O)CC(c1ccc(OC)c(OC)c1)N1C(=O)c2ccccc2C1=O` (stereo unspecified) came in with an IC50 of 12 µM. `COc1cccc(C(CC(N)=O)N2C(=O)c3ccccc3C2=O)c1` (stereo unspecified) came in with an IC50 against Tumor necrosis factor [1] of 120 µM. Molecule `COc1ccc(C(CC(N)=O)N2C(=O)c3ccccc3C2=O)cc1` (stereo unspecified) came in with an IC50 on Tumor necrosis factor [1] of 62 µM. With `COC(=O)CC(c1ccc(OC)c(OC)c1)N1C(=O)c2cccc(O)c2C1=O` (stereo unspecified), the IC50 against Tumor necrosis factor [1] was found to be 15 µM. `COC(=O)CC(c1ccc(OC)c(OC)c1)N1C(=O)c2ccc(N)cc2C1=O` (stereo unspecified) displayed an IC50 at Tumor necrosis factor [1] of 0.38 µM. In the case of `NC(=O)CC(c1ccc(Cl)c(Cl)c1)N1C(=O)c2ccccc2C1=O` (stereo unspecified), the midpoint of inhibition at Tumor necrosis factor [1], the IC50, lay at 70 µM. At Tumor necrosis factor [1], `NC(=O)CC(c1ccccc1)N1C(=O)c2ccccc2C1=O` (stereo unspecified) had an IC50 of 260 µM. In turn, `N#Cc1cccc(C(CC(N)=O)N2C(=O)c3ccccc3C2=O)c1` (stereo unspecified) had an IC50 on Tumor necrosis factor [1] of 89 µM. Regarding `CCOc1ccc(C(CC(N)=O)N2C(=O)c3ccccc3C2=O)cc1OCC` (stereo unspecified), the midpoint of inhibition against Tumor necrosis factor [1], the IC50, lay at 5.6 µM.

`COC(=O)CC(c1ccc(OC)c(OC)c1)N1C(=O)c2ccc([N+](=O)[O-])cc2C1=O` (stereo unspecified) had an IC50 on Tumor necrosis factor [2] of 34 µM. Molecule `NC(=O)CC(c1ccc2ccccc2c1)N1C(=O)c2ccccc2C1=O` (stereo unspecified) returned an IC50 against Tumor necrosis factor [1] of 51 µM. The molecule `COC(=O)CC(c1ccc(OC)c(OC)c1)N1C(=O)c2cccc([N+](=O)[O-])c2C1=O` (stereo unspecified) gave an IC50 against Tumor necrosis factor [2] of 64 µM. Molecule `COC(=O)CC(c1ccc(OC)c(OC)c1)N1C(=O)c2cc(Cl)c(Cl)cc2C1=O` (stereo unspecified) returned an IC50 against Tumor necrosis factor [2] of 13 µM. Consider `COc1cc(OC)cc(C(CC(N)=O)N2C(=O)c3ccccc3C2=O)c1` (stereo unspecified), for which 39 µM corresponded to half-maximal inhibition against Tumor necrosis factor [1] (IC50). On Tumor necrosis factor [1], `COC(=O)CC(c1ccc(OC)c(OC)c1)N1C(=O)c2ccccc2C1=O` (stereo unspecified) yielded an IC50 of 2.9 µM. Consider `COc1ccc(C(CC(N)=O)N2C(=O)c3ccccc3C2=O)cc1OC` (stereo unspecified), for which the half-maximal inhibitory concentration (IC50) against Tumor necrosis factor [1] came to 12 µM.
